Data reported in patent US6875761B2 (Eisai Co., Ltd., priority 1997, dated 2005).
Counter-ions that a name gives are not always drawn.

Assays:
serotonin 1A receptor = target: T1, serotonin 1A receptor (Rattus norvegicus, UniProt P19327); experiment: Binding test on [3H] 8-hydroxy-dipropylaminotetralin, hippocampus receptor fraction; parameters: species or system SD rats; settings: rat hippocampus receptor fraction, 0.5 nM [3H] 8-OH-DPAT, room temperature 30 min; read-out: 5HT1
T1 construct: To the receptor fraction of the hippocampus were added a test compound and 0.5 nM of [^3H]; 8-hydroxy-dipropylaminotetralin; from tissue; host or cells: rat hippocampus membrane fraction
T1 sequence (P19327 1-422): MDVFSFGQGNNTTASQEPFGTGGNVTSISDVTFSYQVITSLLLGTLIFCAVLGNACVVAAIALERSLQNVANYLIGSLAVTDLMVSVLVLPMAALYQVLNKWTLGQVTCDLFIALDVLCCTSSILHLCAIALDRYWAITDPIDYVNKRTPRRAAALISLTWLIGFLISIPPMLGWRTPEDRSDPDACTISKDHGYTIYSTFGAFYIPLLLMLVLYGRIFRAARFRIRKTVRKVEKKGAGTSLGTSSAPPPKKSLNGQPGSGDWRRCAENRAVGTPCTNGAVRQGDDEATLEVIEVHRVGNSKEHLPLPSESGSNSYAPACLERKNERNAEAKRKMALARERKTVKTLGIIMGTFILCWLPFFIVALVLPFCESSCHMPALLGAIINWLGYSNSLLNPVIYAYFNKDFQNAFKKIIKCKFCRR

serotonin 2 receptor = target: T2, serotonin 2 receptor (Rattus norvegicus, UniProt P14842); experiment: Binding test on [3H] ketanserin, cerebral cortex receptor fraction; parameters: species or system SD rats; settings: 0.3 nM [3H] ketanserin, 37° C. 15 min, read-out: 5HT2
T2 construct: To the receptor fraction of the cerebral cortex were added a test compound and 0.3 nM of [^3H] ketanserin; from tissue; host or cells: rat cerebral cortex membrane fraction
T2 sequence (P14842 whole entry): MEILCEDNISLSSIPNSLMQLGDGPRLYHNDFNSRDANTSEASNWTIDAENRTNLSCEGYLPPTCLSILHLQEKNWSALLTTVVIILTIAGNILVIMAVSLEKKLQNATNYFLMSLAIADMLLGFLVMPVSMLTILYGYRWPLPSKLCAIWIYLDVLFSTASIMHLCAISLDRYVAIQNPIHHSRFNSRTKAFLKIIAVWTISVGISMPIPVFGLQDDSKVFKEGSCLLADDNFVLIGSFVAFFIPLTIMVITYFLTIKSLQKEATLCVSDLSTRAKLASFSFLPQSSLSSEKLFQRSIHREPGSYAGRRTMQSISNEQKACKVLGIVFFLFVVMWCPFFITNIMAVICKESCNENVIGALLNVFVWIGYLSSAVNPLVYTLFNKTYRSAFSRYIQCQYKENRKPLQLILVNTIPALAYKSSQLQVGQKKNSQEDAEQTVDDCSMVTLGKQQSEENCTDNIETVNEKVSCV

CCN1CCN(c2nc(-c3ccc([C@@H]4C[C@H](O)CCO4)cc3)cc3ccccc23)CC1 (relative stereo) (as salt: hydrochloride) [Example 401, 1-(4-Ethylpiperazin-1-yl)-3-[4-(cis-4-Hydroxytetrahydropyran-2-yl)Phenyl]Isoquinoline Dihydrochloride]
melting point: 148 to 149.5 °C

CCN1CCN(c2nc(-c3ccc([C@@H]4C[C@@H](O)CCO4)cc3)cc3ccccc23)CC1 (relative stereo) (as salt: hydrochloride) [Example 402, 1-(4-Ethylpiperazin-1-yl)-3-[4-(trans-4-Hydroxytetrahydropyran-2-yl)Phenyl]Isoquinoline Dihydrochloride]
melting point: 151 to 152.5 °C (dec.)

CCN1CCN(c2nc(-c3ccc([C@@H]4C[C@H](O)CCO4)cc3)cc3ccsc23)CC1 (relative stereo) (as salt: hydrochloride) [Example 454, 7-(4-Ethylpiperazin-1-yl)-5-[4-(cis-4-hydroxytetrahydropyran-2-yl)phenyl]thieno[2,3-c]pyridine dihydrochloride]
melting point: 157 to 159 °C

CCN1CCN(c2nc(-c3ccc([C@@H]4C[C@@H](O)CCO4)cc3)cc3ccsc23)CC1 (relative stereo) (as salt: hydrochloride) [Example 455, 7-(4-ethylpiperazin-1-yl)-5-[4-(trans-4-hydroxytetrahydropyran-2-yl)phenyl]thieno[2,3-c]pyridine dihydrochloride]
melting point: 146 to 148 °C

CCN1CCN(c2nc(-c3ccc(OCC(C)O)cc3)cc3cccnc23)CC1 (stereo in doubt) (as salt: hydrochloride) [Example 246, 8-(1-ethylpiperazin-4-yl)-6-{4-[(S)-2-hydroxypropoxy}phenyl]-1,7-naphthyridine Dihydrochloride]
melting point: 136 to 140 °C

CCN1CCN(c2nc(-c3ccc(O[C@H](C)CO)cc3)cc3sccc23)CC1 (stereo in doubt) (as salt: hydrochloride) [Example 463, 4-(4-ethylpiperazin-1-yl)-6-[4-(2-hydroxy-1-methylethoxy)phenyl]thieno[3,2-c]pyridine dihydrochloride]
melting point: 124 to 125 °C

CCN1CCN(c2nc(C=C(COC)c3ccccc3)cc3ccccc23)CC1 (stereo in doubt) (as salt: oxalate) [Example 208, 3-[(E)-2-Methoxymethyl-2-Phenylethenyl]-1-(4-Ethylpiperazin-1-Yl)Isoquinoline Oxalate]
melting point: 180 to 182 °C

CCN1CCN(c2nc(-c3cc(OC)c(OC)cc3OC)cc3ccccc23)CC1.Cl [Example 16, 1-(4-ethylpiperazin-1-yl)-3-(2,4,5-trimethoxyphenyl)isoquinoline dihydrochloride]
Ki (serotonin 1A receptor): 0.03 µM
Ki (serotonin 2 receptor): 0.044 µM
melting point: 158 to 160 °C

CCN1CCN(c2nc(-c3ccc(CCCO)c(C(N)=O)c3)cc3ccccc23)CC1 [Example 31, 3-[3-carboxamide-4-(3-hydroxypropyl)phenyl]-1-(4-ethylpiperazin-1-yl)isoquinoline]
Ki (serotonin 1A receptor): 0.0107 µM
Ki (serotonin 2 receptor): 0.0303 µM
melting point: 213 to 218 °C (dec.)

CCN1CCN(c2nc(-c3ccc(/C=N\O)cc3)cc3ccccc23)CC1.Cl [Example 60, (Z)-1-(4-Ethylpiperazin-1-Yl)-3-(4-Hydroxyiminomethylphenyl)Isoquinoline Hydrochloride]
Ki (serotonin 1A receptor): 0.0213 µM
Ki (serotonin 2 receptor): 0.0091 µM
melting point: 239 °C (dec.)

CCN1CCN(c2nc(-c3ccc(/C=N/O)cc3)cc3ccccc23)CC1.Cl [Example 61, (E)-1-(4-Ethylpiperazin-1-Yl)-3-(4-Hydroxyiminomethylphenyl)Isoquinoline Hydrochloride]
Ki (serotonin 1A receptor): 0.0117 µM
Ki (serotonin 2 receptor): 0.0082 µM
melting point: 243 °C (dec.)

CCN1CCN(c2nc(-c3ccc(C4CCOCC4)s3)cc3ccccc23)CC1.Cl [Example 166, 3-[2-(tetrahydropyran-4-yl]thiophen-5-yl]-1-(4-ethylpiperazin-1-yl)isoquinoline hydrochloride]
Ki (serotonin 1A receptor): 0.0819 µM
Ki (serotonin 2 receptor): 0.0115 µM
melting point: 251 to 253 °C
